Data as given in patent US20140288052A1, “SUBSTITUTED BICYCLIC AZA-HETEROCYCLES AND ANALOGUES AS SIRTUIN MODULATORS” (GlaxoSmithKline, LLC, priority 2011, published 2014).

Experiments:
SIRT1 [1] = biological target: T1, SIRT1 (Homo sapiens, UniProt Q96EB6); experiment: TAMRA based mass spectrometry assay of SIRT1 deacetylase activation; type: biochemical; conditions: TAMRA peptide substrate; for TAMRA EC1.5 (μM): concentration that results in 150% activation of SIRT1; for TAMRA % Fold Act: percent maximum fold activation relative to control (100%)
T1 sequence (Q96EB6 1-747): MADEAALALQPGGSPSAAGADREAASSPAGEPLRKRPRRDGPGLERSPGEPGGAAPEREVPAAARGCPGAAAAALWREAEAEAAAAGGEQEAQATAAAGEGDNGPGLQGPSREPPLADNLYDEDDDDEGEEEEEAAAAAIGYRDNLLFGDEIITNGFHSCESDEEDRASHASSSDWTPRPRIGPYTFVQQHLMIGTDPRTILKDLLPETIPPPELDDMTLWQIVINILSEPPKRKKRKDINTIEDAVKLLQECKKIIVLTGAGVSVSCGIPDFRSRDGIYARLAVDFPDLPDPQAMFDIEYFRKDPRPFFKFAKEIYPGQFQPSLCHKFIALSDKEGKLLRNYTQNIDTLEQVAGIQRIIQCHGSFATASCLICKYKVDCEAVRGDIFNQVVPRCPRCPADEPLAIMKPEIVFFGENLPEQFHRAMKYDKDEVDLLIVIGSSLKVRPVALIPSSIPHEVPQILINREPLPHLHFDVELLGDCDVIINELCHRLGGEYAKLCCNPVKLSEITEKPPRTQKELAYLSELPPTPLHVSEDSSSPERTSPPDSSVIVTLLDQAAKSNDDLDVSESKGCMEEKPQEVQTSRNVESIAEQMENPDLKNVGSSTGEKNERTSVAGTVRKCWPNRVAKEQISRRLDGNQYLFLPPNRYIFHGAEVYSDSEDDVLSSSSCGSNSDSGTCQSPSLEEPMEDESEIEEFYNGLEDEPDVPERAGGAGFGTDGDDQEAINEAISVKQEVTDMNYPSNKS
Outline: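 E. coli-expressed N-terminal His-tagged human SIRT1 (10 nM) was incubated 25 min at 25 °C, pH 8 Tris-acetate buffer, with 0.5 μM TAMRA-labelled p53-derived acetyl-peptide, 120 μM NAD+ and varying compound; formic acid stop, mass-spec quantitation of deacetylated product vs DMSO controls. EC1.5 = concentration giving 150% activation.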

SIRT1 [2] = biological target: T1, SIRT1; experiment: Trp mass spectrometry assay of SIRT1 deacetylase activation; type: biochemical; conditions: Trp peptide substrate; for TRP EC1.5 (μM): concentration that results in 150% activation of SIRT1; for TRP % Fold Act: percent maximum fold activation relative to control (100%)
Outline: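 His-tagged human SIRT1 (E. coli-expressed, 10 nM) was incubated with 0.5 μM Ac-RHKK(Ac)W-NH2 peptide and 120 μM βNAD+ for 25 min at 25 °C in HEPES pH 7.5, 1500 mM NaCl, with varying compound; formic acid quench. OAADPR or deacetylated peptide was quantified by mass spectrometry against DMSO control. EC1.5 (150% activation) and percent maximum activation were derived.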

Structure (SMILES) | TAMRA EC1.5 (μM) (SIRT1 [1]) | TAMRA % Fold Act (SIRT1 [1]) | TRP EC1.5 (μM) (SIRT1 [2]) | TRP % Fold Act (SIRT1 [2])
Cc1nc(C(=O)Nc2ccnc3cc(-c4ccccc4C(F)(F)F)nn23)c(C)s1 [Compound 57] | A (EC1.5<1 μM) | A (Fold activation≧350%) | B (EC1.5 1−25 μM) | B (Fold Activation<350%)
Cc1cnc(NC(=O)c2ccnn3cc(-c4ccccc4C(F)(F)F)nc23)s1 [Compound 14] | A (EC1.5<1 μM) | B (Fold Activation<350%) | C (EC1.5>25 μM) | B (Fold Activation<350%)
Cn1cnc(C(=O)Nc2ccnc3cc(-c4ccccc4C(F)(F)F)nn23)c1 [Compound 94] | A (EC1.5<1 μM) | A (Fold activation≧350%) | C (EC1.5>25 μM) | B (Fold Activation<350%)
O=C(Nc1nccs1)c1ccnn2cc(-c3ccccc3C(F)(F)F)nc12 [Compound 13] | A (EC1.5<1 μM) | B (Fold Activation<350%) | A (EC1.5<1 μM) | B (Fold Activation<350%)
Cc1cnc(NC(=O)c2ccnn3cc(-c4cccc(F)c4)nc23)s1 [Compound 5] | C (EC1.5>25 μM) | B (Fold Activation<350%) | C (EC1.5>25 μM) | B (Fold Activation<350%)
O=C(Nc1ccnc2cc(-c3cccc(C(F)(F)F)c3)nn12)c1ncccn1 [Compound 71] | B (EC1.5 1−25 μM) | B (Fold Activation<350%) | C (EC1.5>25 μM) | B (Fold Activation<350%)
O=C(Nc1ccncn1)c1ccnc2cc(-c3cccc(C(F)(F)F)c3)nn12 [Compound 92] | C (EC1.5>25 μM) | B (Fold Activation<350%) | C (EC1.5>25 μM) | B (Fold Activation<350%)
O=C(Nc1cccc(N2CCOCC2)n1)c1ccnn2cc(-c3ccccc3C(F)(F)F)nc12 [Compound 16] | A (EC1.5<1 μM) | A (Fold activation≧350%) | C (EC1.5>25 μM) | B (Fold Activation<350%)
Cc1csc(NC(=O)c2ccnc3cc(-c4ccccc4C(F)(F)F)nn23)n1 [Compound 81] | B (EC1.5 1−25 μM) | B (Fold Activation<350%) | B (EC1.5 1−25 μM) | B (Fold Activation<350%)

Further lines, results first:

TAMRA EC1.5 (μM) (SIRT1 [1]) | TAMRA % Fold Act (SIRT1 [1]) | TRP EC1.5 (μM) (SIRT1 [2]) | TRP % Fold Act (SIRT1 [2]) | Structure (SMILES)
A (EC1.5<1 μM) | A (Fold activation≧350%) | C (EC1.5>25 μM) | B (Fold Activation<350%) | O=C(Nc1cccc(N2CCOCC2)n1)c1ccnc2cc(-c3ccccc3C(F)(F)F)nn12 [Compound 82]
A (EC1.5<1 μM) | A (Fold activation≧350%) | C (EC1.5>25 μM) | B (Fold Activation<350%) | O=C(Nc1ccnc2cc(-c3ccccc3C(F)(F)F)nn12)c1ncc(F)cc1F [Compound 116]
B (EC1.5 1−25 μM) | B (Fold Activation<350%) | B (EC1.5 1−25 μM) | B (Fold Activation<350%) | O=C(Nc1ccnc2cc(-c3cccc(C(F)(F)F)c3)nn12)c1cccc(OCC(O)CO)n1 (centres unmarked) [Compound 74]
C (EC1.5>25 μM) | B (Fold Activation<350%) | C (EC1.5>25 μM) | B (Fold Activation<350%) | O=C(Nc1cccnc1)c1cc(N2CCOCC2)nn2cc(-c3cccc(Cl)c3)nc12 [Compound 33]
C (EC1.5>25 μM) | B (Fold Activation<350%) | C (EC1.5>25 μM) | B (Fold Activation<350%) | Cc1cnc(NC(=O)c2cc(N3CCOCC3)nn3cc(-c4cccc(C(F)(F)F)c4)nc23)s1 [Compound 48]
